Patent publication US10993986B2, “Pharmaceutical constructs with enhanced binding affinity with albumin” (Immunwork Inc., priority 2017, dated 2021)
Starred links: 1 amine or outer side, 2 acyl side, 3 side chain; linkers in the order of their positions; H or OH if unused. Non-standard residues stand in square brackets, D forms with d. Groups on a side chain read outwards from the residue. Primed or numbered codes have the meaning given here. No end group written: not given here. *: point of attachment. alkynylpropionyl = alkynylpropionyl (alkyne-ethyl) group on the N-terminal spacer, reacted by CuAAC with the azide; PEG4′ = PEGylated amino acid with four EG (ethylene glycol) repeats; C16 diacid = O=C(O)CCCCCCCCCCCCCCC(=O)*; γGlu = O=C(O)[C@H](CCC(=O)[*:2])N[*:1]; Palmitoyl = CCCCCCCCCCCCCCCC(=O)*; Azidoacetyl = [N-]=[N+]=NCC(=O)*; Aib = CC(C)(N)C(=O)O

Columns and labels:
[1] = test system: INS-1 cells; experiment: Alamar Blue cell viability / proliferation of INS-1 cells; assay type: cell-based, rat; conditions: 30 mM glucose, 100 nM, 24, 48 and 72 hours, compared with liraglutide, FIG. 19
Protocol: The cultured INS-1 cells were seeded at a density of 2×10^4 cells/well into 96-well plate in culture medium containing 10% […] bovine serum. After 48 hours, the cells were further incubated for another 24 hours for serum starvation. […] The cells cultured in normal medium being used as a control.
After being incubated for 24, 48 and 72 hours, the cell viability was then determined by Alamar Blue cell viability reagent kit (Invitrogen) in accordance with the manufacturer's instruction.
The cell proliferation ratio (see FIG. 19) was a ratio of the cell viability at multiple time points compared to 0 hour.

[2] = molecular target: T1, GLP-1 receptor (Rattus norvegicus, UniProt P32301); experiment: GLP-1R-mediated cAMP generation in INS-1 cells (cAMP ELISA kit); assay type: cell-based; conditions: 100 nM, 2.5 mM glucose, 20 min, 37° C., FIG. 17
T1 construct: endogenous in cells; host or cells: rat INS-1 cells
T1 sequence (P32301 22-463): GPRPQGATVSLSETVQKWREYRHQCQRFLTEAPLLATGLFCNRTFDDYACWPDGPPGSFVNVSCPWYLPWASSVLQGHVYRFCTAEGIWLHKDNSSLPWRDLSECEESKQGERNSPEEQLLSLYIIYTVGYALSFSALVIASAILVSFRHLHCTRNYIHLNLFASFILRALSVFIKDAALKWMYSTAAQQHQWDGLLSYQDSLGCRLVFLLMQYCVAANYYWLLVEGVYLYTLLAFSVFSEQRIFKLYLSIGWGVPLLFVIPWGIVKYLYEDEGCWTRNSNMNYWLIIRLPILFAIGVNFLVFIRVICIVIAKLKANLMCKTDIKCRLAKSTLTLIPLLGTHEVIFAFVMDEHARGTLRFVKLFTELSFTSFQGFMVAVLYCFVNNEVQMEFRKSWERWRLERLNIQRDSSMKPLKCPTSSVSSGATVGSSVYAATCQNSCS
Protocol: Briefly, on day one, 2×10^5 INS-1 cells were plated in each well of a 24-well plate (ThermoFisher Scientific, Waltham, USA) with 500 μL/well culture medium. […] 100 nM liraglutide, as a positive control for cAMP generation, was added to control wells and incubated for 20 min at 37° C. Glucose at lower concentration (2.5 mM) was used as a negative control, and glucose at higher concentration (16 mM) was used as a control for glucose-induced cAMP generation. After 20 minutes of incubation, the medium was aspirated and 200 μl of 0.1N HCl was added to each well. The cells were scraped off from the surface by cell scraper and subjected to centrifugation at 1,000×g for 10 min at 4° C. The supernatant was transferred to new tubes and used for experiment in a 96-well plate. Cyclic AMP levels in the cells were measured at wavelength of 420 nm using SpectraMax M2 microplate reader (Molecular devices, San Jose, USA).

[3] = test system: caspase-3; experiment: Western blot of activated caspase-3 expression in INS-1 cells; assay type: cell-based, rat; conditions: xx mM glucose, normalized against β-actin, FIGS. 18A/18B
Description: Cleaved caspase-3 is a key executor in the apoptotic process. In this example, the expression of caspase-3 was detected using western blot analysis.
For the immunoblot analysis, proteins were separated using SDS-PAGE, and then transferred onto a polyvinylidene fluoride (PVDF) membrane. The membrane was probed using antibodies against caspase-3 (Cell Signaling Technology, Danvers, USA), followed by horseradish peroxidase-(HRP) conjugated secondary antibodies (Epitomics, Burlingame, USA). The membrane was visualized using an enhanced chemiluminescence system (GE Healthcare Life Sciences, Buckinghamshire, USA). The levels of protein expression were normalized against β-actin expression.

[4] = in vivo; cited from earlier work

Substance | cell viability (cell proliferation ratio vs 0 hour) [1] | cellular cAMP level [2] | expression level of caspase-3 [3] | serum half-life [4] [days]
GLP-1-Aib^8-EG4-2E-2FA-C16-acid: Aib-substituted GLP-1 agonist having an azide group coupled via CuAAC to alkyne-EG4-2E-2FA-C16-acid (Example 11) (peptide H[Aib]EGTFTSDVSSYLEGQAAK([γGlu-Azidoacetyl])LEFIAWLVRGRG; chain alkynylpropionyl-[PEG4′]K([γGlu-C16 diacid])[PEG4′]K([γGlu-C16 diacid])-OMe; also: triazole at chain A 20 to a chain's N-terminus) | significantly improved | elicited the expected rise in cellular cAMP level | – | –
GLP-1-Aib^8-EG4-2E-2FA-C16: Aib-substituted GLP-1 agonist having an azide group coupled via CuAAC to alkyne-EG4-2E-2FA-C16 (Example 10) (peptide H[Aib]EGTFTSDVSSYLEGQAAK([γGlu-Azidoacetyl])LEFIAWLVRGRG; chain alkynylpropionyl-[PEG4′]K([γGlu-Palmitoyl])[PEG4′]K([γGlu-Palmitoyl])-OMe; also: triazole at chain A 20 to a chain's N-terminus) | significantly improved | elicited the expected rise in cellular cAMP level | can effectively reduce the expression level of caspase-3 | –
albiglutide | – | – | – | 4 to 7
